# What was measured:
# [1] = target: T1, human PDE4D5 (long isoform) (Homo sapiens, UniProt Q08499); test: PDE assay, [3H]cAMP two-step radio-assay, PDE4D5 long isoform activation; format: biochemical; conditions: 100 μM test compound; mean % increase in counts over basal activity
# T1 construct: Using Full-Length Human PDE4 Isoforms; Long Forms PDE4D5, PDE4C3, PDE4B1 and Short Form PDE4B2; made in house; cytosol fraction (100,000 g supernatant) of the cell lysate, not purified
# Description: One suitable method of detecting whether or not a compound is capable of serving as an activator of a PDE4 long form is using a two-step radio-assay procedure described in Experiment 1. In summary, the method involves incubating a PDE4 long form with a test small molecule activator, together with [^3H]-labelled cAMP to assess alterations in the breakdown of cAMP to the 5′-adenosine monophosphate (5′-AMP) product. A sample of the reaction mixture from such an incubation is subsequently treated with snake venom 5′-nucleotidase to allow conversion of the nucleotide [^3H]-labelled 5′-AMP to the uncharged nucleoside [^3H]-labelled adenosine, which can be separated and quantified to assess PDE4 activity and the effect of the test compound (Thompson, W. J. and Appleman, M. M. Biochemistry 10: 311-316, 1971, with some modifications as described in: Marchmont, R. J. and Houslay, M. D. Biochem J. 187: 381-92, 1980). […]
# The cell lysate containing recombinant PDE4D5 was transferred into a centrifuge tube and placed into an ultracentrifuge (BECKMAN COULTER) and spun at high speed (100,000 g) for 30 minutes at 4° C. The cytosol fraction was then collected and its protein amount determined using a BCA protein assay. […]
# [2] = target: T2, human PDE4B2 (short isoform) (Homo sapiens, UniProt Q07343); test: PDE assay, [3H]cAMP two-step radio-assay, PDE4B2 short isoform activation; format: biochemical; conditions: 100 μM test compound; mean % increase in counts over basal activity
# T2 construct: the full length human PDE4B2 short isoform; made in house
# T2 sequence (Q07343 1-564 isoform Q07343-2): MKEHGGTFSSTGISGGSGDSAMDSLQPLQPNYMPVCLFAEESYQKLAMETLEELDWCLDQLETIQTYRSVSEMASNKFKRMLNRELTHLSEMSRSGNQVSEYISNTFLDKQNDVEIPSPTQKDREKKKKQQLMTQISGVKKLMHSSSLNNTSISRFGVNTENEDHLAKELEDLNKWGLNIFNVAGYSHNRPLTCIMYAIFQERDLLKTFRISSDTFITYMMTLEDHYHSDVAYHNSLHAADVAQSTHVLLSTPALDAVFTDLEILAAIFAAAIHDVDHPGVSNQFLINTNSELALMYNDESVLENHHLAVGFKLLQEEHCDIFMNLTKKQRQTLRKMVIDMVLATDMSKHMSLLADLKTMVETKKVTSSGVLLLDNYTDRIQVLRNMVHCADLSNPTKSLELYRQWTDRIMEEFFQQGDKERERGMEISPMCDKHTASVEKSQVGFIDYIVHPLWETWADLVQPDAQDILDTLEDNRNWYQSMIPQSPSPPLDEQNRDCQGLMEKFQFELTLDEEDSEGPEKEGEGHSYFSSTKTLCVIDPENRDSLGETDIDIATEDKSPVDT
# [3] = system: m-IMCD3 cells expressing PDE4 long forms; test: cAMP levels in PGE2-stimulated 3D m-IMCD3 cell culture media; format: cell-based; conditions: Mus musculus, mIMCD3; 3 μM test compound; compared to 100% for (DMSO + PGE2); read-out: cAMP level (% of PGE2-stimulated)
# Description: HEK 293 and MDCK cells (Public Health England, Cell Culture Collections) were maintained in Dulbecco's Modified Eagle's Medium (DMEM) supplemented with 10% (v/v) fetal bovine serum (FBS) (Seralab), 2 mM L-glutamine and 100 U/mL penicillin streptomycin cocktail (ThermoFisher); termed complete media. Clonal HEK 293 cell lines were maintained in complete media supplemented with 0.6 mg/ml G418 (Enzo Life Sciences). Mouse inner medullary collecting duct (m-IMCD3) cells [American Type Culture Collection (ATCC)] were maintained in media consisting of DMEM/Hams F-12 50/50 Mix (DMEM F12; Corning) supplemented with penicillin streptomycin cocktail (100 U/mL) and FBS (10% v/v) (DMEM F12-10% FBS).
# Activation of intracellular PDE4 long forms leads to a reduction of both intracellular cAMP and externalised cAMP (Omar et al., PNAS 116: 13320-13329, 2019). This reduction may be measured in the cell culture media supernatant of 3D cystic cell cultures, such as in the m-IMCD3 cell cyst suppression assay described in Experiment 3.
# Following the completion of the m-IMCD3 cell cyst suppression assay (Experiment 3), the cAMP level in the assay media from individual or pooled assay wells was measured using a cAMP ELISA kit (Enzo Life Sciences) or a LANCE Ultra cAMP kit (PerkinElmer) according to the manufacturer's instructions.
# [4] = system: m-IMCD3 cells; test: Inhibition of PGE2-stimulated in vitro cyst formation in m-IMCD3 cells; format: cell-based, mouse; conditions: Mus musculus, mIMCD3, 144 h, mean cyst area, 100% for (DMSO + PGE2) and 0% for DMSO control, 6 days of culture; for activity at 3 µM: read-out: % Cyst area after incubation with 3 μM test compound; for activity at 10 µM: read-out: % Cyst area after incubation with 10 μM test compound
# Outline: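 Mean cyst area after 6 days, expressed relative to DMSO+PGE2 (100%) and DMSO alone (0%), from z-stack images. Mouse m-IMCD3 spheroids grew in collagen I/Matrigel gels and received PGE2 (100 nM final) with test compound (0.1% DMSO) starting 18–24 h post-plating, media refreshed at day 2 or 3.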
# T1 sequence (Q08499 1-745 isoform Q08499-6): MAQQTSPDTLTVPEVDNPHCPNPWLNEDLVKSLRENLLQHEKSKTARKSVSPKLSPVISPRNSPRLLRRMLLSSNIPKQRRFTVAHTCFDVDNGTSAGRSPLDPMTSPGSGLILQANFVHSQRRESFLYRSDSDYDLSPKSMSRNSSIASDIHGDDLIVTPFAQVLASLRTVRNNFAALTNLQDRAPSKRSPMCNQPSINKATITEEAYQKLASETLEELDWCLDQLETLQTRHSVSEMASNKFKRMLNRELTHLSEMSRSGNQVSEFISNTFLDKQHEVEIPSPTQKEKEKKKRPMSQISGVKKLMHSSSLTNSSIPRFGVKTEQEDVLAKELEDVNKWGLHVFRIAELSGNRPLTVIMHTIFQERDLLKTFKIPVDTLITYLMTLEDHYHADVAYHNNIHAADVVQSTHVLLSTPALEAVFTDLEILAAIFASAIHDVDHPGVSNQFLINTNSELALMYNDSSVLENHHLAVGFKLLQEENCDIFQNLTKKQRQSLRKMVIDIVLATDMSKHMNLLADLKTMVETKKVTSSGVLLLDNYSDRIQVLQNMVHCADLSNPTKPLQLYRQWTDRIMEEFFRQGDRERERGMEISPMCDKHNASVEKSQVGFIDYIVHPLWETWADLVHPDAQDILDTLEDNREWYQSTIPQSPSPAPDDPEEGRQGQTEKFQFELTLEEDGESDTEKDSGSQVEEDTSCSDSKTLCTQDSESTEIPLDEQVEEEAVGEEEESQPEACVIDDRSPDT
Compound,% increase in PDE4D5 (long isoform) activity at 100 μM [1],% increase in PDE4B2 (short isoform) activity at 100 μM [2],activity at 3 µM [3],activity at 3 µM [4],activity at 10 µM [4]
"O=C(CC1CCCC1)N1CCc2nc(N3CCN4CCC[C@H]4C3)sc2C1 [Example 271, (S)-2-cyclopentyl-1-(2-(hexahydropyrrolo[1,2-a]pyrazin-2(1H)-yl)-6,7-dihydrothiazolo[5,4-c]pyridin-5(4H)-yl)ethan-1-one]",28%,−15%,42%,4%,–
"CCCN1CC2CCC(C1)N2c1nc2c(s1)CN(C(=O)COc1ccc(F)cc1)CC2 [Example 303, 2-(4-fluorophenoxy)-1-(2-(3-propyl-3,8-diazabicyclo[3.2.1]octan-8-yl)-6,7-dihydrothiazolo[5,4-c]pyridin-5(4H)-yl)ethan-1-one]",–,–,55%,0%,–
"O=C(CC1CCCC1)N1CCc2nc(C3CCNCC3)sc2C1 [Example 118, 2-cyclopentyl-1-(2-(piperidin-4-yl)-6,7-dihydrothiazolo[5,4-c]pyridin-5(4H)-yl)ethan-1-one]",–,–,52%,–,5%
"O=S(=O)(Cc1ccccc1)N1CCc2nc(N3C4CCC3CNC4)sc2C1 [Example 288, 5-(benzylsulfonyl)-2-(3,8-diazabicyclo[3.2.1]octan-8-yl)-4,5,6,7-tetrahydrothiazolo[5,4-c]pyridine]",–,–,34%,7%,–
"O=C(CC1CCCC1)N1CCc2nc(N3C[C@@H]4C[C@H]3CN4)sc2C1 [Example 277, 1-(2-((1S,4S)-2,5-diazabicyclo[2.2.1]heptan-2-yl)-6,7-dihydrothiazolo[5,4-c]pyridin-5(4H)-yl)-2-cyclopentylethan-1-one]",–,–,42%,6%,–
"O=C(N1CCn2nc(N3C4CCC3CNC4)cc2C1)C(F)(F)c1ccccc1 [Example 126, 1-(2-(3,8-diazabicyclo[3.2.1]octan-8-yl)-6,7-dihydropyrazolo[1,5-a]pyrazin-5(4H)-yl)-2,2-difluoro-2-phenylethan-1-one]",–,–,39%,–,-10%
"O=S(=O)(NC1CCCC1)N1CCc2nc(N3C4CCC3CNC4)sc2C1 [Example 108, 2-(3,8-diazabicyclo[3.2.1]octan-8-yl)-N-cyclopentyl-6,7-dihydrothiazolo[5,4-c]pyridine-5(4H)-sulfonamide]",22%,–,53%,–,–
"CCN1CCN(c2nc3c(s2)CN(S(=O)(=O)Cc2ccc(F)cc2)CC3)CC1 [Example 304, 2-(4-ethylpiperazin-1-yl)-5-((4-fluorobenzyl)sulfonyl)-4,5,6,7-tetrahydrothiazolo[5,4-c]pyridine]",–,–,47%,13%,–
"O=C(C1COc2ccccc21)N1CCc2nc(N3C4CCC3CNC4)sc2C1 (centres unmarked) [Example 184, (2-(3,8-diazabicyclo[3.2.1]octan-8-yl)-6,7-dihydrothiazolo[5,4-c]pyridin-5(4H)-yl)(2,3-dihydrobenzofuran-3-yl)methanone]",–,–,58%,15%,–

# From US20250388604A1, “Compounds and Their Use as PDE4 Activators” (Mironid Limited, priority 2022, published 2025)
